Reference: patent US9895349B2, “N-phenyl-carboxamide derivatives and the use thereof as medicaments for the treatment of hepatitis B” (priority 2013, dated 2018)

Tests used:
HBV [1] = experiment: Anti-HBV activity, HepG2.2.15 stable transfected cell line, HBV DNA from secreted virions by realtime PCR; format: cell-based, Hepatitis B virus (HBV); details: HepG2.2.15 cells, 6 days of treatment
[2] = Cytotoxicity in HepG2 cells, Resazurin assay; details: human
HBV [3] = experiment: Anti-HBV activity, HepG2.117 inducibly HBV producing cell line (Tet-off), intracellular HBV DNA by realtime PCR; format: cell-based, Hepatitis B virus (HBV); details: HepG2.117 cells, 3 days of treatment
[4] = Hepatitis B virus, HepG2.2.15, 144 h
[5] = Hepatitis B virus, HepG2.117, 72 h

SMILES | EC50 (HBV [1]; [4]) | CC50 at 4 days [2] | EC50 (HBV [3]; [5]) | EC50 (HBV [1]) | EC50 (HBV [3])
Cc1cc(NC(=O)[C@H]2CCN(S(=O)(=O)C3CCOCC3)C2)ccc1F [Compound 9, (3S)—N-(4-fluoro-3-methyl-phenyl)-1-tetrahydropyran-4-ylsulfonyl-pyrrolidine-3-carboxamide] | 1.4 µM | > 25 µM | 0.95 µM | – | –
Cc1cc(NC(=O)C2(F)CCN(S(=O)(=O)NC(C)C)C2)ccc1F (racemic) [Compound 35a, 3-fluoro-N-(4-fluoro-3-methyl-phenyl)-1-(isopropylsulfamoyl)pyrrolidine-3-carboxamide] | – | > 25 µM | – | 0.563 µM | 0.228 µM
Cc1cc(NC(=O)[C@@H]2CN(S(=O)(=O)NC(C)C)C[C@H]2C)ccc1F (relative stereo) [Compound 41, trans-N-(4-fluoro-3-methyl-phenyl)-1-(isopropylsulfamoyl)-4-methyl-pyrrolidine-3-carboxamide] | 0.53 µM | > 25 µM | 0.42 µM | – | –
CCC(C)S(=O)(=O)N1CC[C@H](C(=O)Nc2ccc(F)c(C)c2)C1 (stereo partly drawn) [Compound 25, (3S)—N-(4-fluoro-3-methyl-phenyl)-1-sec-butylsulfonyl-pyrrolidine-3-carboxamide] | 5.5 µM | > 25 µM | 0.43 µM | – | –
Cc1cc(NC(=O)[C@@H]2CCN(S(=O)(=O)CC(C)C)C2)ccc1F [Compound 3, (3R)—N-(4-fluoro-3-methyl-phenyl)-1-isobutylsulfonyl-pyrrolidine-3-carboxamide] | > 25 µM | > 25 µM | 1.49 µM | – | –
Cc1cc(NC(=O)[C@H]2CCN(S(=O)(=O)NC3CC(=O)N(C)C3)C2)ccc1F (stereo partly drawn) [Compound 50, (3S)—N-(4-fluoro-3-methyl-phenyl)-1-[(1-methyl-5-oxo-pyrrolidin-3-yl)sulfamoyl]pyrrolidine-3-carboxamide] | 0.35 µM | > 25 µM | 0.46 µM | – | –
Cc1cc(NC(=O)[C@H]2CCN(S(=O)(=O)N[C@H]3CCOC3)C2)ccc1F [Compound 33, (3S)—N-(4-fluoro-3-methyl-phenyl)-1-[[(3S)-tetrahydrofuran-3-yl]sulfamoyl]pyrrolidine-3-carboxamide] | 0.15 µM | > 25 µM | 0.075 µM | – | –
Cc1cc(NC(=O)[C@H]2CCN(S(=O)(=O)N[C@@H]3c4ccccc4C[C@H]3O)C2)ccc1F [Compound 37, (3S)—N-(4-fluoro-3-methyl-phenyl)-1-[[(1R,2R)-2-hydroxyindan-1-yl]sulfamoyl]pyrrolidine-3-carboxamide] | 0.27 µM | > 25 µM | 0.53 µM | – | –
O=C(Nc1ccc(F)c(F)c1)[C@H]1CCN(S(=O)(=O)N[C@H]2CCOC2)C1 [Compound 46, (3S)—N-(3,4-difluorophenyl)-1-[[(3S)-tetrahydrofuran-3-yl]sulfamoyl]pyrrolidine-3-carboxamide] | 0.6 µM | > 25 µM | 0.24 µM | – | –
Cc1cc(NC(=O)[C@H]2CCN(S(=O)(=O)N[C@H](C)CO)C2)ccc1F [Compound 39, (3S)—N-(4-fluoro-3-methyl-phenyl)-1-[[(1R)-2-hydroxy-1-methyl-ethyl]sulfamoyl]pyrrolidine-3-carboxamide] | – | > 25 µM | 0.15 µM | – | –
CCC1CC1S(=O)(=O)N1CC[C@H](C(=O)Nc2ccc(F)c(C)c2)C1 (stereo partly drawn) [Compound 24, (3S)-1-(2-ethylcyclopropyl)sulfonyl-N-(4-fluoro-3-methyl-phenyl)pyrrolidine-3-carboxamide] | 0.5 µM | > 25 µM | 0.33 µM | – | –
COC(=O)NC[C@@H](C)NS(=O)(=O)N1CC[C@H](C(=O)Nc2ccc(F)c(C)c2)C1 [Compound 51, methyl N-[(2R)-2-[[(3S)-3-[(4-fluoro-3-methyl-phenyl)carbamoyl]pyrrolidin-1-yl]sulfonylamino]propyl]carbamate] | 0.15 µM | > 25 µM | 0.057 µM | – | –
Cc1cc(NC(=O)C2(F)CCN(S(=O)(=O)N[C@H]3CCOC3)C2)ccc1F (single isomer, unassigned) [Compound 42a] | > 5 µM | > 25 µM | – | – | > 5 µM
Cc1cc(NC(=O)[C@H]2CCN(S(=O)(=O)CC(C)C)C2)ccc1F [Compound 2, (3S)—N-(4-fluoro-3-methyl-phenyl)-1-isobutylsulfonyl-pyrrolidine-3-carboxamide] | 1.32 µM | > 25 µM | 0.31 µM | – | –
Cc1cc(NC(=O)[C@H]2CCN(S(=O)(=O)CC3CC3)C2)ccc1F [Compound 8, (3S)-1-(cyclopropylmethylsulfonyl)-N-(4-fluoro-3-methyl-phenyl)pyrrolidine-3-carboxamide] | 0.58 µM | > 25 µM | 0.33 µM | – | –
CC[C@@H](C)NS(=O)(=O)N1CC[C@H](C(=O)Nc2ccc(F)c(F)c2)C1 [Compound 45, (3S)—N-(3,4-difluorophenyl)-1-[[(1R)-1-methylpropyl]sulfamoyl]pyrrolidine-3-carboxamide] | 3.25 µM | > 25 µM | 0.54 µM | – | –
Cc1cc(NC(=O)C2CN(S(=O)(=O)CC(C)C)c3ccccc32)ccc1F (centres unmarked) [Compound 28, N-(4-fluoro-3-methyl-phenyl)-1-isobutylsulfonyl-indoline-3-carboxamide] | 2 µM | > 25 µM | 3.9 µM | – | –
Cc1cc(NC(=O)C2(C)CCN(S(=O)(=O)CC(C)C)C2)ccc1F (racemic) [Compound 29, N-(4-fluoro-3-methyl-phenyl)-1-isobutylsulfonyl-3-methyl-pyrrolidine-3-carboxamide] | 13.7 µM | > 25 µM | – | – | 18.9 µM
Cc1cc(NC(=O)[C@H]2CCN(S(=O)(=O)NC(C)CNC(=O)OC(C)(C)C)C2)ccc1F (stereo partly drawn) [Compound 38, tert-butyl N-[2-[[(3S)-3-[(4-fluoro-3-methyl-phenyl)carbamoyl]pyrrolidin-1-yl]sulfonylamino]propyl]carbamate] | 3.65 µM | > 25 µM | 2.07 µM | – | –
Cc1cc(NC(=O)[C@H]2CCN(S(=O)(=O)C3CCCC3)C2)ccc1F [Compound 10, (3S)-1-cyclopentylsulfonyl-N-(4-fluoro-3-methyl-phenyl)pyrrolidine-3-carboxamide] | 4.3 µM | 22.9 µM | 0.76 µM | – | –
Cc1cc(NC(=O)[C@H]2CCN(S(=O)(=O)NC(C)CC#N)C2)ccc1F (stereo partly drawn) [Compound 40, (3S)-1-[(2-cyano-1-methyl-ethyl)sulfamoyl]-N-(4-fluoro-3-methyl-phenyl)pyrrolidine-3-carboxamide] | 0.29 µM | > 25 µM | 0.12 µM | – | –
Cc1cc(NC(=O)[C@H]2CCN(S(=O)(=O)NC(C)C)C2)ccc1F [Compound 32, (3S)—N-(4-fluoro-3-methyl-phenyl)-1-(isopropylsulfamoyl)pyrrolidine-3-carboxamide] | 0.18 µM | > 25 µM | 0.12 µM | – | –
Cc1cc(NC(=O)[C@H]2CCN(S(=O)(=O)N3CC4(COC4)C3)C2)ccc1F [Compound 49, (3S)—N-(4-fluoro-3-methyl-phenyl)-1-(6-oxa-2-azaspiro[3.3]heptan-2-ylsulfonyl)pyrrolidine-3-carboxamide] | 1.49 µM | > 25 µM | 0.95 µM | – | –
